Like-named read-outs stand apart in the source and are kept apart here.
Target: T1, LOXL2 (Homo sapiens, UniProt Q9Y4K0)
T1 sequence (Q9Y4K0 26-774): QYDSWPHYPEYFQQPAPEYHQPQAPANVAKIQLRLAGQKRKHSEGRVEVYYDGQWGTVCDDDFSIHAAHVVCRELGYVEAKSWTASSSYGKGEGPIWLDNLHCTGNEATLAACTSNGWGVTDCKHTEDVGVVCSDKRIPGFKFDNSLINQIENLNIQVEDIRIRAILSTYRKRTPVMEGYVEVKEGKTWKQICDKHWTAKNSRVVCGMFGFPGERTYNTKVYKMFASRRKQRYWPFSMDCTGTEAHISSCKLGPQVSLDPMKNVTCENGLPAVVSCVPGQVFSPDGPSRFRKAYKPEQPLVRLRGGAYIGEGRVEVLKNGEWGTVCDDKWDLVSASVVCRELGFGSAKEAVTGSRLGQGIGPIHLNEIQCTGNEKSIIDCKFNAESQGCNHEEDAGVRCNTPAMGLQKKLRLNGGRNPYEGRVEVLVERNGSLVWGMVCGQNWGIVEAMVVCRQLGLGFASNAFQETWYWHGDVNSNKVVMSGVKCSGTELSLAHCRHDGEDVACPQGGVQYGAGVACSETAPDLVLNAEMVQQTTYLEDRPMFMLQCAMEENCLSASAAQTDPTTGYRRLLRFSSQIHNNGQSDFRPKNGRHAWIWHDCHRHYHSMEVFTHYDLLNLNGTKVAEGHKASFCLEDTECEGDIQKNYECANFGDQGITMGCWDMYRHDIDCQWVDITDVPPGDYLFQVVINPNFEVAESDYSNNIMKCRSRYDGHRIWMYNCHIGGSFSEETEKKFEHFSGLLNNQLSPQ
Assay: Time-dependent inhibition with pre-incubation 0-240 min (Fig. 2e)
Type: biochemical
Details: for remaining activity at 30 µM: log conc -4.52288; for remaining activity at 30 µM / remaining activity at 10 µM / remaining activity at 3.333 µM / remaining activity at 1.111 µM / remaining activity at 0.3704 µM / remaining activity at 0.12346 µM / remaining activity at 0.04115 µM / remaining activity at 0.013717 µM / remaining activity at 0.004572 µM / remaining activity at 0.001524 µM / remaining activity at 0.0005081 µM / remaining activity at 0.0001694 µM: read-out: LOXL2 specific activity; for remaining activity at 10 µM: log conc -5; for remaining activity at 3.333 µM: log conc -5.47712; for remaining activity at 1.111 µM: log conc -5.95424; for remaining activity at 0.3704 µM: log conc -6.43136; for remaining activity at 0.12346 µM: log conc -6.90849; for remaining activity at 0.04115 µM: log conc -7.38561; for remaining activity at 0.013717 µM: log conc -7.86273; for remaining activity at 0.004572 µM: log conc -8.33985; for remaining activity at 0.001524 µM: log conc -8.81697; for remaining activity at 0.0005081 µM: log conc -9.29409; for remaining activity at 0.0001694 µM: log conc -9.77121
Description: Data are presented as mean ± s.d. […] Data presented as mean ± s.d. […] Source data TEXT PRINTED IN THE PICTURE: (b) PXS-5505: Recombinant DAO IC50 (nM): >30,000; Recombinant SSAO/VAP1 IC50 (nM): >30,000; Recombinant MAO-A IC50 (nM): >30,000; Recombinant MAO-B IC50 (nM): >30,000 | (f) PXS-5505: Fibroblast LOX IC50 (nM): 4,930; Recombinant LOXL-1 IC50 (nM): 1,590; Recombinant LOXL-2 IC50 (nM): 570; Recombinant LOXL-3 IC50 (nM): 1,800; Recombinant LOXL-4 IC50 (nM): 190
Similar to other fluoroallylamine-based amine oxidase inhibitors, the mode of inhibition is assumed to be a two-step mechanism (Fig. 2c), with PXS-5505 reacting with the unique LTQ cofactor found within the active site. The fluoroallylamine facilitates the formation of a covalent, irreversible bond. […] Furthermore, in jump dilution experiments, there is no significant recovery of activity following rapid dilution (LOXL1 (5 ± 5% recovery, n = 4), LOXL2 (7 ± 1.2% recovery, n = 3) and LOXL3 (11 ± 2% recovery, n = 3)).

SMILES: Cl.Cl.NC/C=C(\F)CS(=O)(=O)c1cccc2cccnc12.O [PXS-5505, (Z)-3-fluoro-4-(quinolin-8-ylsulfonyl)but-2-en-1-amine dihydrochloride monohydrate]
- remaining activity at 30 µM (0.25 h, pre-incubation 15 min): 1.28%
- remaining activity at 10 µM (0.25 h, pre-incubation 15 min): 4.38%
- remaining activity at 3.333 µM (0.25 h, pre-incubation 15 min): 16%
- remaining activity at 1.111 µM (0.25 h, pre-incubation 15 min): 38.5%
- remaining activity at 0.3704 µM (0.25 h, pre-incubation 15 min): 64%
- remaining activity at 0.12346 µM (0.25 h, pre-incubation 15 min): 86.7%
- remaining activity at 0.04115 µM (0.25 h, pre-incubation 15 min): 93.6%
- remaining activity at 0.013717 µM (0.25 h, pre-incubation 15 min): 96.4%
- remaining activity at 0.004572 µM (0.25 h, pre-incubation 15 min): 99.2%
- remaining activity at 0.001524 µM (0.25 h, pre-incubation 15 min): 98.4%
- remaining activity at 0.0005081 µM (0.25 h, pre-incubation 15 min): 97.8%
- remaining activity at 0.0001694 µM (0.25 h, pre-incubation 15 min): 102%
- remaining activity at 30 µM (0.5 h, pre-incubation 30 min): -0.266%
- remaining activity at 10 µM (0.5 h, pre-incubation 30 min): -0.0903%
- remaining activity at 3.333 µM (0.5 h, pre-incubation 30 min): 4.21%
- remaining activity at 1.111 µM (0.5 h, pre-incubation 30 min): 17.3%
- remaining activity at 0.3704 µM (0.5 h, pre-incubation 30 min): 43.6%
- remaining activity at 0.12346 µM (0.5 h, pre-incubation 30 min): 72.5%
- remaining activity at 0.04115 µM (0.5 h, pre-incubation 30 min): 87.7%
- remaining activity at 0.013717 µM (0.5 h, pre-incubation 30 min): 93.2%
- remaining activity at 0.004572 µM (0.5 h, pre-incubation 30 min): 96.3%
- remaining activity at 0.001524 µM (0.5 h, pre-incubation 30 min): 109%
- remaining activity at 0.0005081 µM (0.5 h, pre-incubation 30 min): 99.4%
- remaining activity at 0.0001694 µM (0.5 h, pre-incubation 30 min): 103%
- remaining activity at 30 µM (1 h, pre-incubation 60 min): -0.646%
- remaining activity at 10 µM (1 h, pre-incubation 60 min): 0.037%
- remaining activity at 3.333 µM (1 h, pre-incubation 60 min): 1.01%
- remaining activity at 1.111 µM (1 h, pre-incubation 60 min): 5.82%
- remaining activity at 0.3704 µM (1 h, pre-incubation 60 min): 23.2%
- remaining activity at 0.12346 µM (1 h, pre-incubation 60 min): 62.4%
- remaining activity at 0.04115 µM (1 h, pre-incubation 60 min): 86.9%
- remaining activity at 0.013717 µM (1 h, pre-incubation 60 min): 97.3%
- remaining activity at 0.004572 µM (1 h, pre-incubation 60 min): 101%
- remaining activity at 0.001524 µM (1 h, pre-incubation 60 min): 104%
- remaining activity at 0.0005081 µM (1 h, pre-incubation 60 min): 104%
- remaining activity at 0.0001694 µM (1 h, pre-incubation 60 min): 106%
- remaining activity at 30 µM (2 h, pre-incubation 120 min): -0.278%
- remaining activity at 10 µM (2 h, pre-incubation 120 min): 1.09%
- remaining activity at 3.333 µM (2 h, pre-incubation 120 min): 1.27%
- remaining activity at 1.111 µM (2 h, pre-incubation 120 min): 2.05%
- remaining activity at 0.3704 µM (2 h, pre-incubation 120 min): 7.04%
- remaining activity at 0.12346 µM (2 h, pre-incubation 120 min): 36.3%
- remaining activity at 0.04115 µM (2 h, pre-incubation 120 min): 69.5%
- remaining activity at 0.013717 µM (2 h, pre-incubation 120 min): 87.9%
- remaining activity at 0.004572 µM (2 h, pre-incubation 120 min): 97.9%
- remaining activity at 0.001524 µM (2 h, pre-incubation 120 min): 102%
- remaining activity at 0.0005081 µM (2 h, pre-incubation 120 min): 102%
- remaining activity at 0.0001694 µM (2 h, pre-incubation 120 min): 103%
- remaining activity at 30 µM (4 h, pre-incubation 240 min): -0.548%
- remaining activity at 10 µM (4 h, pre-incubation 240 min): 0.438%
- remaining activity at 3.333 µM (4 h, pre-incubation 240 min): 0.0615%
- remaining activity at 1.111 µM (4 h, pre-incubation 240 min): 0.566%
- remaining activity at 0.3704 µM (4 h, pre-incubation 240 min): 1.17%
- remaining activity at 0.12346 µM (4 h, pre-incubation 240 min): 14.1%
- remaining activity at 0.04115 µM (4 h, pre-incubation 240 min): 45.6%
- remaining activity at 0.013717 µM (4 h, pre-incubation 240 min): 71.8%
- remaining activity at 0.004572 µM (4 h, pre-incubation 240 min): 91.6%
- remaining activity at 0.001524 µM (4 h, pre-incubation 240 min): 95.6%
- remaining activity at 0.0005081 µM (4 h, pre-incubation 240 min): 101%
- remaining activity at 0.0001694 µM (4 h, pre-incubation 240 min): 102%
- time-dependent inhibition of LOXL2 specific activity (pre-incubation time 0–240 min): increased potency with increased pre-incubation time

Reference: article PMC10518255, “A first-in-class pan-lysyl oxidase inhibitor impairs stromal remodeling and enhances gemcitabine response and survival in pancreatic cancer” (Nature Cancer, 2023)
